Source: PMC12643509, “High-throughput screens identify genotype-specific therapeutics for channelopathies” (JCI Insight, 2025)
Values joined by “and” are separate entries in the source; they are usually repeats but may differ in a detail not shown here. Equal entries are not always repeated.

Columns and labels:
WT Kv11.1 = WT Kv11.1 (Homo sapiens, UniProt Q12809); settings: 24 hour and washout, individual wells
Source text: plot of hits tested for 24-h our WT toxicity. Each point repres ents the med ia n robust Z score
after 24-hour treatm ent and washout in cells ex pressing WT.
robust Z scores be low bas eli ne function).
second ary screens w ere perform ed i n triplicate us ing 1 0 µ M drug treatme nt to assess: 1)
acute channel block, measur ed after a 15-minute inc ubati on with the drug present duri ng
recordi ngs; and 2) t oxicit y in W T channels, assesse d af t er a 24-hour drug ex posure fol low ed
(C) Tl+-measurements after 24-hour treatment and washout in HEK cells

[1] = cited from earlier work
C57BL/6J mice = experiment: Mouse ECG analysis (cardiac safety); type: in vivo; design: QTc / QT: unit not given here
[2] = mouse ECG, individual animals (Figure S5)
[3] = mouse ECG, individual animals (Figure S5), in ms (unit assumed)

Chain of WT Kv11.1 (Q12809 whole entry): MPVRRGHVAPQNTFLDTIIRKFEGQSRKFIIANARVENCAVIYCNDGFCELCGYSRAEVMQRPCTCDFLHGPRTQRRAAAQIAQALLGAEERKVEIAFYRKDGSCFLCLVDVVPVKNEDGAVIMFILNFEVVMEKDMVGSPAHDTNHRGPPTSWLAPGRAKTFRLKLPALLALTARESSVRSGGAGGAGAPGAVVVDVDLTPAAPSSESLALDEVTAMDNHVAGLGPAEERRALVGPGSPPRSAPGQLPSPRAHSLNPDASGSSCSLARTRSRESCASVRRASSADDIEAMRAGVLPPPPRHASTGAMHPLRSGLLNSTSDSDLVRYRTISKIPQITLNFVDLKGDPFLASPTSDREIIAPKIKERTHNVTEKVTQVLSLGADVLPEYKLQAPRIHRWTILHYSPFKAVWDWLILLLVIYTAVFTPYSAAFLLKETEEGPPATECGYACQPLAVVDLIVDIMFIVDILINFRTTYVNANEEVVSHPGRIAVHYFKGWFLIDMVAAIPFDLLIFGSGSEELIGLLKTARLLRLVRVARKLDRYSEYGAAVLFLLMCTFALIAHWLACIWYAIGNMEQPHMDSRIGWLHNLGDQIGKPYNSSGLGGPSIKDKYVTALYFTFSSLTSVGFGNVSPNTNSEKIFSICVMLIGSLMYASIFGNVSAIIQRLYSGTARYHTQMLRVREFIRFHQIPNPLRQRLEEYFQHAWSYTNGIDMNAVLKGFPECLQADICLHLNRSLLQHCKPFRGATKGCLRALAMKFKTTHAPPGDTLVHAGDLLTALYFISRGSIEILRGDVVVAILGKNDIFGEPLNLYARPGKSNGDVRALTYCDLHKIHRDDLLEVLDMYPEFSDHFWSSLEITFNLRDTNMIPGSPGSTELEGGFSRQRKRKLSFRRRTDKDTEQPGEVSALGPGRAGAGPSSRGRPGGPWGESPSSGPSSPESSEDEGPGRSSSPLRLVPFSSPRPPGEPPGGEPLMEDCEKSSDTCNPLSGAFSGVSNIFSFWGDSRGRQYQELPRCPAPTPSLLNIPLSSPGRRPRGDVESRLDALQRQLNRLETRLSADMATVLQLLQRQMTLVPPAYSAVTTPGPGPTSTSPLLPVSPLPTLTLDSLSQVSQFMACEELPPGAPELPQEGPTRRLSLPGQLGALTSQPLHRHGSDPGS

Cc1cc(C)c2c(c1)[C@@H](N(Cc1cc(C(F)(F)F)cc(C(F)(F)F)c1)c1nnn(C)n1)CCCN2C[C@H]1CC[C@H](C(=O)O)CC1 [Evacetrapib, evacetrapib]
Changes in WT function (thallium flux) (WT Kv11.1): 0.1125 and 0.1113 and 0.1215 | mean QT interval compared to placebo ([1]; 71 healthy patients, thorough QT study): did not significantly shorten the mean QT interval | shorter QT interval compared with baseline ([1]; at 12 hours): 7 ms | ECG parameters, including the QT interval (C57BL/6J mice; mice, 40 mg/kg intraperitoneally, 30 minutes post-drug): No significant differences | P duration (C57BL/6J mice; [2]): 13.6667 and 11.3333 and 10.6667 and 11.6667 and 9 and 13.3333 and 12.3333 | PR interval (C57BL/6J mice; [2]): 56.3333 and 38.3333 and 42.3333 and 46.6667 and 44.6667 and 41.6667 | QT (C57BL/6J mice; [2]): 31.3333 and 39.3333 and 34 and 35.3333 and 42.3333 | QTc (C57BL/6J mice; [2]): 30.5782 and 35.4177 and 28.9078 and 33.1412 and 36.2561 and 31.0292 and 33.811 | QRS (C57BL/6J mice; [3]): 12 and 11 and 10.6667 and 10.3333 | RR (C57BL/6J mice; [3]): 105 and 123.333 and 138.333 and 113.667 and 136.333 and 129.667 and 135.333
